Entries after “also recorded” stand apart in the source; their conditions may differ. Read-outs that look alike come from different tables or passages of the source.
Experiments:
P2X7 receptor = settings: cited from earlier work
[1] = system: hECEs, ECE16-1, HT3, CaSki, SiHa and Hela cells; settings: cited from earlier work
caspase-9 = settings: hECEs and CaSki cells; cited from earlier work
Bcl-2 = settings: cited from earlier work
CaSki cells [2] = test: Number of CaSki cells in culture; format: cell-based, human; settings: serum-free; 0.2 nM EGF, 2 nM epinephrine, or both, 24 h
Protocol: Near-confluent cultures of CaSki cells on filters were shifted for 14 hours to serum-free medium supplemented with 1% BSA and were treated in the same medium with 0.2 nM EGF, 2 nM epinephrine, or both for an additional 24 h. At the completion of treatments, cells were harvested off the filters and counted.

CaSki cells [3] = test: DNA synthesis by [3H]thymidine incorporation; format: cell-based, human; settings: 0.2 nM EGF, 2 nM epinephrine
Protocol: The experiments used CaSki cells, a line of transformed cervical epithelial cells that were obtained from the ATCC (Manassas, Va.) and were previously characterized as stably expressing phenotypic characteristics of human cervical epithelial cells. Cells were grown and subcultured in RPMI-1640 supplemented with 8% fetal calf serum, 0.2% NaHCO3, nonessential amino acids (0.1 mM), L-glutamine (2 mM), penicillin (100 U/ml), streptomycin (100 μg/ml), and gentamycin ([…]) at 37° C. in a […] humidified incubator. Cultures were routinely tested for mycoplasma. Preliminary experiments were conducted on cells plated on culture plates, and definitive experiments were repeated on cells plated on filters. Filters were either Anocell (Anocell-10, Oxon, UK, obtained through Sigma Chemicals, St. Louis, Mo.), Transwell (Costar Corporation, Cambridge, Mass.), or Millicell-CM (Millipore, Bedford, Mass.). Filters were coated on their upper (luminal) surface with 3-5 μg/cm collagen type IV and incubated at 37° C. overnight. […] DNA synthesis DNA synthesis was measured by [^3H]thymidine incorporation. […] The radioactivity [dpm/mg protein, determined by Bio-Rad (Hercules, Calif.) Protein Assay solution] of triplicated samples was determined by scintillation counting (LS1801 scintillation counter; Beckman, Fullerton, Calif.).

CaSki cells [4] = test: DNA solubilization assay (apoptosis); format: cell-based, human
Protocol: Twenty-four hours before the end of the experiment, cells were labeled with [^3H]thymidine (specific activity, 93 Ci/mmol; 5 μCi/1×10^6 cells) for 16 h. The medium was removed, and cells were washed three times with fresh medium lacking [^3H]thymidine and were incubated in the same medium for an additional 6 h. At the end of incubation, the supernatant was stored, and cells were lysed in 0.5 ml lysis buffer (10 mM Tris-HCl, pH 7.5; plus 1 mM EDTA-0.2% Triton X-100) for 1 h at 4° C. The intact chromatin was separated from the fragmented DNA by 5 min centrifugation at 4° C. in Eppendorf microcentrifuge at 12,000×g. The supernatant (lysate) was stored, while the pellet was resuspended in 0.5 ml of 1% sodium dodecyl sulfate (SDS). The radioactivity contained in the supernatants, lysates; and pellets was counted in a scintillation counter, and DNA fragmentation was calculated as: [% Solubilized DNA]=([cpm supernatant+cpm lysates]/[cpm supernatant+cpm lysate+cpm pellet])×100.

Substance	BzATP-induced calcium influx (P2X7 receptor; cancer CaSki cells)	BzATP-induced calcium influx (P2X7 receptor; normal hECEs)	P2X7 receptor-induced apoptosis ([1]; SiHa and Hela cells)	earliest effects after adding the hormone [1] [h]	baseline and P2X7 receptor-induced apoptosis ([1]; hECEs, ECE16-1, HT3, and CaSki cells)	P2X7 receptor-induced activation of caspase-9 (caspase-9)	Bcl-2 regulation (Bcl-2; CaSki cells)	Bcl-2 regulation (Bcl-2; SiHa and Hela cells)	number of cells in culture (CaSki cells [2])	[3H]thymidine incorporation (CaSki cells [3])	effect on TNFα-induced increase in DNA solubilization (CaSki cells [4]; pretreatment 24 h: 1 μM zinterol or 0.2 nM EGF)	effect on BzATP-induced apoptosis (DNA solubilization) (CaSki cells [4]; pretreatment: EGF 0.2 nM, zinterol/terbutaline 1 μM 24 h, forskolin 10 μM 14 h with IBMX, isoproterenol 10 μM, phenylephrine 100 μM)
17β-estradiol [estrogen]	only a mild effect	did block BzATP-induced calcium influx	no effect	1 to 3	blocked baseline and P2X7 receptor-induced apoptosis	blocked P2X7 receptor-induced activation of caspase-9	upregulated Bcl-2	did not find estrogen regulation of Bcl-2				
EGF: Human recombinant EGF, epidermal growth factor									increased the number of cells in culture	increased [^3H]thymidine incorporation	no significant effect	little effect; also recorded: no significant effect

Source: US7767789B2, “Truncated proteins as cancer markers” (University Hopitals of Cleveland, priority 2005, dated 2010)
